For four molecules, Activity, minimal effective concentration and inhibition results are on record in ChEMBL document CHEMBL4257522, “Synthesis and preliminary anti-inflammatory and anti-bacterial evaluation of some diflunisal aza-analogs” (Medchemcomm, 2018).

Data set [1] has as its system Macrophage cell line. Kind of data set: Antiinflammatory activity in human PBMC-differentiated macrophages assessed as lowest concentration required to show at least 25% inhibition of LPS-induced IL-8 production measured after 24 hrs by ELISA. Format: functional.
Data set [2] deals with Streptococcus pyogenes. Kind of data set: Potentiation of tetracycline-induced antibacterial activity against Streptococcus pyogenes ATCC 14289 assessed as minimum modulatory concentration up to 32 uM measured after 16 hrs in presence of MIC/4 tetracycline. Format: functional. As to conditions: ATCC 14289, 16 h, read-out: MEC.
The subject of data set [3] is Klebsiella pneumoniae. Kind of data set: Potentiation of geneticin-induced antibacterial activity against Klebsiella pneumoniae ATCC 13883 assessed as minimum modulatory concentration up to 32 uM measured after 16 hrs in presence of MIC/4 geneticin. It is filed as functional. The following applies: ATCC 13883, 16 h, read-out: MEC.
For data set [4], the system named is Staphylococcus aureus. Briefly: Potentiation of tetracycline-induced antibacterial activity against Staphylococcus aureus ATCC 33592 assessed as minimum modulatory concentration up to 32 uM measured after 16 hrs in presence of MIC/4 tetracycline. It is filed as functional. As to conditions: ATCC 33592, 16 h, read-out: MEC.
Data set [5] relates to Klebsiella pneumoniae. Kind of data set: Potentiation of methicillin-induced antibacterial activity against Klebsiella pneumoniae ATCC 13883 assessed as minimum modulatory concentration up to 32 uM measured after 16 hrs in presence of MIC/4 methicillin. It is filed as functional. As to conditions: ATCC 13883, 16 h, read-out: MEC.
In another data set the test system is Enterococcus faecium. Kind of data set: Potentiation of tetracycline-induced antibacterial activity against Enterococcus faecium ATCC 700221 assessed as minimum modulatory concentration up to 32 uM measured after 16 hrs in presence of MIC/4 tetracycline. It is filed as functional. The following applies: ATCC 700221, 16 h, read-out: MEC.
Data set [6] relates to Staphylococcus aureus. Briefly: Potentiation of methicillin-induced antibacterial activity against Staphylococcus aureus ATCC 33592 assessed as minimum modulatory concentration up to 32 uM measured after 16 hrs in presence of MIC/4 methicillin. Format: functional. As to conditions: ATCC 33592, 16 h, read-out: MEC.
For data set [7], the system named is Macrophage cell line. Briefly: Antiinflammatory activity in human PBMC-differentiated macrophages assessed as lowest concentration required to show at least 25% inhibition of LPS-induced TNFalpha production measured after 24 hrs by ELISA. It is filed as functional.
The subject of data set [8] is Macrophage cell line. Briefly: Antiinflammatory activity in human PBMC-differentiated macrophages assessed as lowest concentration required to show at least 25% inhibition of LPS-induced IL-1beta production measured after 24 hrs by ELISA. It is filed as functional.
Data set [9] concerns Staphylococcus aureus. Briefly: Toxicity in Staphylococcus aureus ATCC 33592 up to 32 uM measured after 16 hrs. It is filed as organism-based.
Data set [10] relates to Streptococcus pyogenes. Briefly: Toxicity in Streptococcus pyogenes ATCC 14289 up to 32 uM measured after 16 hrs. Format: organism-based.
The subject of data set [11] is Macrophage cell line. Kind of data set: Induction of IL-8 production in human PBMC-differentiated macrophages after 24 hrs by ELISA. It is filed as cell-based.
For data set [12], the system named is Macrophage cell line. Briefly: Antiinflammatory activity in human PBMC-differentiated macrophages assessed as lowest concentration required to show at least 25% inhibition of LPS-induced prostaglandin production measured after 24 hrs by ELISA. It is filed as functional.
The next data set has as its system Escherichia coli. Kind of data set: Potentiation of erythromycin-induced antibacterial activity against Escherichia coli ATCC 43894 assessed as minimum modulatory concentration up to 32 uM measured after 16 hrs in presence of MIC/4 erythromycin. Format: functional. As to conditions: ATCC 43894, 16 h, read-out: MEC.
The subject of data set [13] is Macrophage cell line. Kind of data set: Antiinflammatory activity in human PBMC-differentiated macrophages assessed as inhibition of LPS-induced IL-1beta production at 0.01 to 10 uM measured after 24 hrs by ELISA. It is filed as functional, cell-based.
Data set [14] has as its system Macrophage cell line. Briefly: Antiinflammatory activity in human PBMC-differentiated macrophages assessed as inhibition of LPS-induced TNFalpha production at 0.01 to 10 uM measured after 24 hrs by ELISA. It is filed as functional, cell-based.

The source made the active and inactive calls. The calls are words filed in the database; no cut-off is given here.

As to `O=C(O)c1cnc2c(F)cc(F)cc2c1O`, the Activity was 10 µM with Macrophage cell line [1]; 1 µM with Macrophage cell line [7]; 1 µM in the data set on Macrophage cell line [8]; “Non-Toxic” in the data set on Staphylococcus aureus [9]; “Non-Toxic” with Streptococcus pyogenes [10]; “Non-Toxic” in the data set on Macrophage cell line [11]. Also, in the data set on Macrophage cell line [12], the Activity came out at 10 µM. The minimal effective concentration in the data set on Streptococcus pyogenes [2] is 4 µM; in the data set with Klebsiella pneumoniae [3] it was over 32 µM; in the data set on Staphylococcus aureus [4], 2 µM; with Klebsiella pneumoniae [5], over 32 µM; in the data set on Enterococcus faecium it was 4 µM; in the data set on Staphylococcus aureus [6] it was 0.5 µM. In addition, the minimal effective concentration in the data set with Escherichia coli was over 32 µM.

Take `O=C(O)c1cc(-c2ccccc2)nc(-c2ccccc2)c1O`: the minimal effective concentration was 8 µM in the data set on Streptococcus pyogenes [2]; over 32 µM in the data set on Klebsiella pneumoniae [3]; 2 µM in the data set with Staphylococcus aureus [4]; over 32 µM in the data set on Klebsiella pneumoniae [5]; 2 µM in the data set on Enterococcus faecium; 4 µM in the data set with Staphylococcus aureus [6]. The minimal effective concentration in the data set with Escherichia coli was over 32 µM. Further, the Activity was 10 µM in the data set with Macrophage cell line [7]; 10 µM with Macrophage cell line [8]; “Non-Toxic” with Staphylococcus aureus [9]; “Non-Toxic” in the data set on Streptococcus pyogenes [10]; “Non-Toxic” in the data set on Macrophage cell line [11]; 10 µM in the data set on Macrophage cell line [12].

With `O=C(O)c1cc(-c2ccc(F)cc2F)ccc1O` [DIFLUNISAL], the inhibition result in the data set with Macrophage cell line [13] and in the data set on Macrophage cell line [14] was “inactive” in each case. In addition, the minimal effective concentration was over 32 µM in the data set on Streptococcus pyogenes [2]; over 32 µM in the data set on Klebsiella pneumoniae [3]; over 32 µM in the data set on Staphylococcus aureus [4]; over 32 µM in the data set with Klebsiella pneumoniae [5]; over 32 µM in the data set with Enterococcus faecium; 8 µM with Staphylococcus aureus [6]. In addition, the minimal effective concentration with Escherichia coli was over 32 µM. The Activity entry in the data set on Staphylococcus aureus [9] was “Non-Toxic”; in the data set on Streptococcus pyogenes [10], “Non-Toxic”; with Macrophage cell line [11], “Non-Toxic”; in the data set on Macrophage cell line [12] it was 0.1 µM.

Turning to `O=C(O)c1cc(-c2ccc(F)cc2F)ncc1O`, the Activity was 1 µM in the data set with Macrophage cell line [1]; 1 µM in the data set on Macrophage cell line [7]; 1 µM with Macrophage cell line [8]; “Non-Toxic” with Staphylococcus aureus [9]; “Non-Toxic” with Streptococcus pyogenes [10]; “Non-Toxic” in the data set on Macrophage cell line [11]. For the same molecule, the Activity in the data set with Macrophage cell line [12] was determined as 10 µM. Also, the minimal effective concentration is 8 µM in the data set with Streptococcus pyogenes [2]; over 32 µM in the data set on Klebsiella pneumoniae [3]; 2 µM in the data set on Staphylococcus aureus [4]; over 32 µM in the data set with Klebsiella pneumoniae [5]; 4 µM in the data set on Enterococcus faecium; 0.5 µM in the data set with Staphylococcus aureus [6]. For the same molecule, in the data set with Escherichia coli, the minimal effective concentration is over 32 µM.
